The text below walks through data of patent US12077531B2, “Imidazopyridinone compound” (KISSEI PHARMACEUTICAL CO., LTD., priority 2018, dated 2024).

For this assay, the target named is human PHD2184-418 (Homo sapiens (Human), UniProt Q9GZT9). As to the kind of experiment: PHD2 inhibitory test (fluorescence polarization, binding between PHD2 and HIF-1α). The conditions noted are these: human PHD2184-418, FITC-labeled HIF-1α556-574, 2 μM 2-oxoglutarate, 37° C. 60 minutes. As to the method:
Test Example 1 PHD2 Inhibitory Test
(1) Expression and Preparation of Human PHD2184-418
Human PHD2184-418 containing amino acid residues 184 to 418 of the protein represented by CAC42509 (GenBank accession ID) was expressed and prepared by the following method.
An expression construct of human PHD2184-418 containing N-terminal histidine tag was introduced into pET-30a (+) vector, and the sequence was confirmed. This vector was introduced into BL21 (DE3) strain and cultured at 37° C. in LB medium containing antibiotics. After culturing, a cell lysis solution was added to the cells, and then the cells were disrupted by sonication. The disrupted suspension was centrifuged and the supernatant was purified by Ni column to give human PHD2184-418.
Human HIF-1α556-574 (FITC-labeled HIF-1α556-574), containing N-terminal FITC-Ahx, containing amino acid residues 556 to 574 (partial peptide) of HIF-1α was used as a substrate. Using FITC-labeled HIF-1α556-574, the competitive inhibition between 2-oxoglutarate and test compounds (PHD inhibitor) was evaluated based on the change in fluorescence polarization by the following method.
An enzyme (human PHD2184-418) and the substrate were diluted with an assay buffer (pH 7.4) containing 10 mM HEPES, 150 mM NaCl, 10 μM MnCl2-4H2O, 2 μM 2-oxoglutarate and 0.05% Tween-20. Test compounds were diluted with DMSO. Test compounds and human PHD2184-418 was added to the 384-well plate (Corning, black, opaque bottom) in advance. The reaction was started by the addition of FITC-labeled HIF-1α556-574. After incubating at 37° C. for 60 minutes, fluorescence polarization (excitation wavelength: 470 nm, fluorescence wavelength: 530 nm) was measured by PHERAstar FSX (BMG Labtech). Fluorescence polarization of each well was measured, and human PHD2 binding inhibitory activity of test compounds was calculated based on the value of test compound-free group.
On the technique in general: Polarisation of emitted light reports the rotation of a fluorescent probe.

Each structure is given as a SMILES string.

Sequence of human PHD2184-418 (Q9GZT9 184-418): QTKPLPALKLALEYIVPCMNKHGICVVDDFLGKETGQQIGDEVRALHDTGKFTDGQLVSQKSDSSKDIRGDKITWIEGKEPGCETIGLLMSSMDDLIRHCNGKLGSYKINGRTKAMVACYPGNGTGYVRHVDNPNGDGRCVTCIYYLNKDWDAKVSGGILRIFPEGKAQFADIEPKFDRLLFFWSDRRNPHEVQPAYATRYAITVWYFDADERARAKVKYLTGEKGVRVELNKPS

Turning to `O=C(O)c1ccnc(CN2CC[C@H](n3c(=O)n(-c4ccc(-c5ccc(O)c(C(=O)O)c5)cc4O)c4cccnc43)C2)c1` [Example 53, (S)-2-((3-(1-(3′-Carboxy-3,4′-dihydroxy-[1,1′-biphenyl]-4-yl)-2-oxo-1,2-dihydro-3H-imidazo[4,5-b]pyridin-3-yl)pyrrolidin-1-yl)methyl)isonicotinic acid], the IC50 (usually the concentration needed to halve the response being measured) was found to be 0.14 µM.

Molecule `COC(=O)c1ccc(-n2c(=O)n([C@H]3CCN(Cc4ncccc4C)C3)c3ncccc32)cc1` [Example 15, Methyl (S)-4-(3-(1-((3-methylpyridin-2-yl)methyl)pyrrolidin-3-yl)-2-oxo-2,3-dihydro-1H-imidazo[4,5-b]pyridin-1-yl)benzoate] showed a concentration for half-maximal inhibition (IC50) of 64.5 µM.

Molecule `Cc1cccnc1CN1CC[C@H](n2c(=O)n(-c3ccc(-c4ccc(O)cc4)cc3)c3cccnc32)C1` [Example 89, (S)-1-(4′-Hydroxy-[1,1′-biphenyl]-4-yl)-3-(1-((3-methylpyridin-2-yl)methyl)pyrrolidin-3-yl)-1,3-dihydro-2H-imidazo[4,5-b]pyridin-2-one] gave an IC50 of 3.17 µM.

In turn, `Cn1c(C(=O)O)cnc1CN1CC[C@H](n2c(=O)n(-c3ccc(Oc4ccccc4)cc3)c3cccnc32)C1` [Example 56, (S)-1-Methyl-2-((3-(2-oxo-1-(4-phenoxyphenyl)-1,2-dihydro-3H-imidazo[4,5-b]pyridin-3-yl)pyrrolidin-1-yl)methyl)-1H-imidazole-5-carboxylic acid] came in with an IC50 of 0.41 µM.

In the case of `Cn1c(C(=O)O)cnc1CN1CC[C@H](n2c(=O)n(Cc3ccccc3)c3cccnc32)C1` [Example 71, (S)-2-((3-(1-Benzyl-2-oxo-1,2-dihydro-3H-imidazo[4,5-b]pyridin-3-yl)pyrrolidin-1-yl)methyl)-1-methyl-1H-imidazole-5-carboxylic acid], the IC50 was determined as 13.9 µM.

Regarding `Cn1c(C(=O)O)cnc1CN1CC[C@H](n2c(=O)n(-c3ccc(O)cc3)c3cccnc32)C1` [Example 73, (S)-2-((3-(1-(4-Hydroxyphenyl)-2-oxo-1,2-dihydro-3H-imidazo[4,5-b]pyridin-3-yl)pyrrolidin-1-yl)methyl)-1-methyl-1H-imidazole-5-carboxylic acid], the IC50 worked out at 3 µM.

As for `CN(C)c1ccc(-n2c(=O)n([C@H]3CCN(Cc4ncc(C(=O)O)n4C)C3)c3ncccc32)cc1` [Example 55, (S)-2-((3-(1-(4-(Dimethylamino)phenyl)-2-oxo-1,2-dihydro-3H-imidazo[4,5-b]pyridin-3-yl)pyrrolidin-1-yl)methyl)-1-methyl-1H-imidazole-5-carboxylic acid], the half-inhibitory concentration (IC50) turned out to be 0.49 µM.

The molecule `Cc1cccnc1CN1CC[C@H](n2c(=O)n(-c3ccc(-c4ccc(C#N)cc4)cc3)c3cccnc32)C1` [Example 34, (S)-4′-(3-(1-((3-Methylpyridin-2-yl)methyl)pyrrolidin-3-yl)-2-oxo-2,3-dihydro-1H-imidazo[4,5-b]pyridin-1-yl)-[1,1′-biphenyl]-4-carbonitrile] gave an IC50 of 5.7 µM.

In turn, `Cn1ccnc1CN1CC[C@H](n2c(=O)n(-c3ccc(-c4ccccc4)cc3)c3ccc(C(=O)O)nc32)C1` [Example 20, (S)-1-([1,1′-Biphenyl]-4-yl)-3-(1-((1-methyl-1H-imidazol-2-yl)methyl)pyrrolidin-3-yl)-2-oxo-2,3-dihydro-1H-imidazo[4,5-b]pyridine-5-carboxylic acid] gave a concentration for half-maximal inhibition (IC50) of 6.71 µM.

`Cn1ccnc1CN1CC[C@H](n2c(=O)n(-c3ccc(-c4ccccc4)cc3)c3cccnc32)C1` [Example 2, (S)-1-([1,1′-biphenyl]-4-yl)-3-(1-((1-methyl-1H-imidazol-2-yl)methyl)pyrrolidin-3-yl)-1,3-dihydro-2H-imidazo[4,5-b]pyridin-2-one]: the IC50 came to 0.79 µM.

In turn, `O=c1n(-c2ccc(-c3ccccc3)cc2)c2cccnc2n1[C@H]1CCN(Cc2cc(O)ccn2)C1` [Example 10, (S)-1-([1,1′-Biphenyl]-4-yl)-3-(1-((4-hydroxypyridin-2-yl)methyl)pyrrolidin-3-yl)-1,3-dihydro-2H-imidazo[4,5-b]pyridin-2-one] displayed an IC50 of 5.49 µM.

Molecule `Cc1cccnc1CN1CC[C@H](n2c(=O)n(-c3ccc(-c4ccncc4)cc3)c3cccnc32)C1` [Example 90, (S)-3-(1-((3-Methylpyridin-2-yl)methyl)pyrrolidin-3-yl)-1-(4-(pyridin-4-yl)phenyl)-1,3-dihydro-2H-imidazo[4,5-b]pyridin-2-one] yielded a half-maximal inhibitory concentration (IC50) of 7.46 µM.

`Cn1c(C(=O)O)cnc1CN1CC[C@H](n2c(=O)n(-c3ccc(Cc4ccccc4)cc3)c3cccnc32)C1` [Example 57, (S)-2-((3-(1-(4-Benzylphenyl)-2-oxo-1,2-dihydro-3H-imidazo[4,5-b]pyridin-3-yl)pyrrolidin-1-yl)methyl)-1-methyl-1H-imidazole-5-carboxylic acid] returned an IC50 of 0.71 µM.

In turn, `Cc1cc(-c2ccccc2)ccc1-n1c(=O)n([C@H]2CCN(Cc3nccn3C)C2)c2ncccc21` [Example 28, (S)-3-(1-((1-Methyl-1H-imidazol-2-yl)methyl)pyrrolidin-3-yl)-1-(3-methyl-[1,1′-biphenyl]-4-yl)-1,3-dihydro-2H-imidazo[4,5-b]pyridin-2-one] had an IC50 of 28.2 µM.

Regarding `Cc1cccnc1CN1CC[C@H](n2c(=O)n(-c3ccc(-c4ccc(F)cc4)cc3)c3cccnc32)C1` [Example 31, (S)-1-(4′-Fluoro-[1,1′-biphenyl]-4-yl)-3-(1-((3-methylpyridin-2-yl)methyl)pyrrolidin-3-yl)-1,3-dihydro-2H-imidazo[4,5-b]pyridin-2-one], the IC50 turned out to be 12.5 µM.

In turn, `Cn1c(C(=O)O)cnc1CN1CC[C@H](n2c(=O)n(-c3ccc(N4CCOCC4)cc3)c3cccnc32)C1` [Example 67, (S)-1-Methyl-2-((3-(1-(4-morpholinophenyl)-2-oxo-1,2-dihydro-3H-imidazo[4,5-b]pyridin-3-yl)pyrrolidin-1-yl)methyl)-1H-imidazole-5-carboxylic acid] came in with an IC50 of 0.52 µM.

With `Cc1ccc(-n2c(=O)n([C@H]3CCN(Cc4ncc(C(=O)O)n4C)C3)c3ncccc32)cc1` [Example 58, (S)-1-Methyl-2-((3-(2-oxo-1-(p-tolyl)-1,2-dihydro-3H-imidazo[4,5-b]pyridin-3-yl)pyrrolidin-1-yl)methyl)-1H-imidazole-5-carboxylic acid], the IC50 amounted to 1.02 µM.

Molecule `CSc1ccc(-n2c(=O)n([C@H]3CCN(Cc4ncc(C(=O)O)n4C)C3)c3ncccc32)cc1` [Example 60, (S)-1-Methyl-2-((3-(1-(4-(methylthio)phenyl)-2-oxo-1,2-dihydro-3H-imidazo[4,5-b]pyridin-3-yl)pyrrolidin-1-yl)methyl)-1H-imidazole-5-carboxylic acid] came in with an IC50 of 0.59 µM.

`Cn1c(C#N)cnc1CN1CC[C@H](n2c(=O)n(-c3ccc(-c4ccncc4)cc3)c3cccnc32)C1` [Example 80, (S)-1-Methyl-2-((3-(2-oxo-1-(4-(pyridin-4-yl)phenyl)-1,2-dihydro-3H-imidazo[4,5-b]pyridin-3-yl)pyrrolidin-1-yl)methyl)-1H-imidazole-5-carbonitrile]: the concentration for half-maximal inhibition (IC50) is 65.9 µM.

With `Cc1cnc2c(c1)n(-c1ccc(-c3ccc(C(=O)O)cc3)cc1)c(=O)n2[C@H]1CCN(Cc2ncc(C(=O)O)n2C)C1` [Example 27, (S)-2-((3-(1-(4′-Carboxy-[1,1′-biphenyl]-4-yl)-6-methyl-2-oxo-1,2-dihydro-3H-imidazo[4,5-b]pyridin-3-yl)pyrrolidin-1-yl)methyl)-1-methyl-1H-imidazole-5-carboxylic acid], the IC50 turned out to be 0.11 µM.

`O=C(O)c1ccnc(CN2CC[C@H](n3c(=O)n(-c4ccccc4)c4cccnc43)C2)c1` [Example 19, (S)-2-((3-(2-Oxo-1-phenyl-1,2-dihydro-3H-imidazo[4,5-b]pyridin-3-yl)pyrrolidin-1-yl)methyl)isonicotinic acid]: the IC50 was determined as 6.34 µM.

In turn, `Cn1c(C(=O)O)cnc1CN1CC[C@H](n2c(=O)n(-c3ccsc3)c3cccnc32)C1` [Example 70, (S)-1-Methyl-2-((3-(2-oxo-1-(thiophen-3-yl)-1,2-dihydro-3H-imidazo[4,5-b]pyridin-3-yl)pyrrolidin-1-yl)methyl)-1H-imidazole-5-carboxylic acid] gave a half-maximal inhibitory concentration (IC50) of 1.45 µM.

In the case of `Cn1c(C(=O)O)cnc1CN1CC[C@H](n2c(=O)n(-c3ccc(C#N)cc3)c3cccnc32)C1` [Example 64, (S)-2-((3-(1-(4-Cyanophenyl)-2-oxo-1,2-dihydro-3H-imidazo[4,5-b]pyridin-3-yl)pyrrolidin-1-yl)methyl)-1-methyl-1H-imidazole-5-carboxylic acid], the IC50 was 7.89 µM.

Molecule `O=c1n(-c2ccc(-c3ccccc3)cc2)c2cccnc2n1[C@H]1CCN(Cc2ccccn2)C1` [Example 4, (S)-1-([1,1′-Biphenyl]-4-yl)-3-(1-(pyridin-2-ylmethyl)pyrrolidin-3-yl)-1,3-dihydro-2H-imidazo[4,5-b]pyridin-2-one] yielded an IC50 of 3.45 µM.
